Tested on in one test: not listed separately
Nature of the test: Percent decrease in serum cholesterol levels after intravenous administration of 1 mg/Kg dose for 7 days. The format is functional.
Conditions: not given
As to `C=C(CC[C@]12O[C@H](C(=O)O)[C@@](O)(C(=O)O)[C@](C(=O)O)(O1)[C@H](OC(=O)/C=C/[C@@H](C)C[C@@H](C)CC)[C@H]2O)[C@@H](OC(C)=O)[C@H](C)Cc1ccccc1` [ZARAGOZIC ACIDS A], the Decrease came to 60%.

Tested on in a further test: not listed separately
As to the kind of experiment: Effective dose required for lipid lowering property in marmosets by oral administration for 7 days. The format is functional. To be noted: 168 h.
Regarding `C=C(CC[C@]12O[C@H](C(=O)O)[C@@](O)(C(=O)O)[C@](C(=O)O)(O1)[C@H](OC(=O)/C=C/[C@@H](C)C[C@@H](C)CC)[C@H]2O)[C@@H](OC(C)=O)[C@H](C)Cc1ccccc1` [ZARAGOZIC ACIDS A], the 50% effect level (ED50) was put at a dose of 10 mg/kg/day.

Tested on in the next test: not listed separately
Nature of the test: Lipid lowering ability after intravenous administration of 10 mg/Kg single dose. The format is functional.
Conditions: not given
`C=C(CC[C@]12O[C@H](C(=O)O)[C@@](O)(C(=O)O)[C@](C(=O)O)(O1)[C@H](O)[C@H]2O)[C@@H](OC(C)=O)[C@H](C)Cc1ccccc1` returned a Lowering of 30%.

The target of another test is T1, Squalene synthase (Rattus norvegicus, UniProt Q02769).
T1 sequence (Q02769 whole entry): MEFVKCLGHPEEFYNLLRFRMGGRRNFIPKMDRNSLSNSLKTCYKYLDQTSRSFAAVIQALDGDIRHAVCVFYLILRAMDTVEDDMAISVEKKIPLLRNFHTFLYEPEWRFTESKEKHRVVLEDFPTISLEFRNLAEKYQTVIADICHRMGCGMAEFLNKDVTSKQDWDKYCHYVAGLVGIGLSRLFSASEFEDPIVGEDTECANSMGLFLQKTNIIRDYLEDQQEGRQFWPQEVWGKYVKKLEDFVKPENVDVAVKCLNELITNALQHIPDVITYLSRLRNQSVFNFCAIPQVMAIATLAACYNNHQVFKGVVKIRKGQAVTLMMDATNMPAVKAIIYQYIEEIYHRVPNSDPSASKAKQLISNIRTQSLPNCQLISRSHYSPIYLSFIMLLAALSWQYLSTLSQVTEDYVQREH
As to the kind of experiment: Inhibitory concentration against mammalian Squalene synthase.
Conditions: not given
Turning to `C=C(CC[C@]12O[C@H](C(=O)O)[C@@](O)(C(=O)O)[C@](C(=O)O)(O1)[C@H](O)[C@H]2O)[C@@H](O)[C@H](C)Cc1ccccc1`, the IC50 (in general, the concentration that inhibits the measured activity by half) came to 252 nM. This counts as sub-micromolar.
On the same count and under the same terms, under `C=C(CC[C@]12O[C@H](C(=O)O)[C@@](O)(C(=O)O)[C@](C(=O)O)(O1)[C@H](O)[C@H]2O)[C@@H](OC)[C@H](C)Cc1ccccc1` stands 500 nM.
Regarding `C=CCO[C@H](C(=C)CC[C@]12O[C@H](C(=O)O)[C@@](O)(C(=O)O)[C@](C(=O)O)(O1)[C@H](O)[C@H]2O)[C@H](C)Cc1ccccc1`, the midpoint of inhibition, the IC50, lay at 27 nM.
For `C=C(CC[C@]12O[C@H](C(=O)O)[C@@](O)(C(=O)O)[C@](C(=O)O)(O1)[C@H](O)[C@H]2O)[C@H](NC(C)=O)[C@H](C)Cc1ccccc1`, the IC50 is more than 10000 nM.
Still for that read-out and setting: under `C=C(CC[C@]12O[C@H](C(=O)O)[C@@](O)(C(=O)O)[C@](C(=O)O)(O1)[C@H](O)[C@H]2O)[C@@H](OC(=O)C(C)(C)C)[C@H](C)Cc1ccccc1` stands 2290 nM; under `C=C(CC[C@]12O[C@H](C(=O)O)[C@@](O)(C(=O)O)[C@](C(=O)O)(O1)[C@H](OC(=O)/C=C/[C@@H](C)C[C@@H](C)CC)[C@H]2O)[C@@H](O)[C@H](C)Cc1ccccc1`, 5 nM.
In the case of `C=C(CC[C@]12O[C@H](C(=O)O)[C@@](O)(C(=O)O)[C@](C(=O)O)(O1)[C@H](O)[C@H]2O)[C@@H](OC(=O)c1ccccc1)[C@H](C)Cc1ccccc1`, the IC50 was 532 nM.
In turn, `C=C(CC[C@]12O[C@H](C(=O)O)[C@@](O)(C(=O)O)[C@](C(=O)O)(O1)[C@H](O)[C@H]2O)[C@@H](OCC)[C@H](C)Cc1ccccc1` registered an IC50 of 40 nM.
Turning to `C#CCO[C@H](C(=C)CC[C@]12O[C@H](C(=O)O)[C@@](O)(C(=O)O)[C@](C(=O)O)(O1)[C@H](O)[C@H]2O)[C@H](C)Cc1ccccc1`, it took 1200 nM to reach half-maximal inhibition (IC50).
`CC(=O)NC/C(=C\[C@H](C)Cc1ccccc1)CC[C@]12O[C@H](C(=O)O)[C@@](O)(C(=O)O)[C@](C(=O)O)(O1)[C@H](O)[C@H]2O` came in with an IC50 of more than 10000 nM.
`C=C(CC[C@]12O[C@H](C(=O)O)[C@@](O)(C(=O)O)[C@](C(=O)O)(O1)[C@H](O)[C@H]2O)[C@@H](OCCC)[C@H](C)Cc1ccccc1` returned an IC50 of 600 nM. This lies in the sub-micromolar range.
Turning to `C=C(CC[C@]12O[C@H](C(=O)O)[C@@](O)(C(=O)O)[C@](C(=O)O)(O1)[C@H](O)[C@H]2O)[C@@H](OC(C)C)[C@H](C)Cc1ccccc1`, the IC50 turned out to be 49 nM.
For `C=C(CC[C@]12O[C@H](C(=O)O)[C@@](O)(C(=O)O)[C@](C(=O)O)(O1)[C@H](O)[C@H]2O)[C@@H](OCc1ccccc1)[C@H](C)Cc1ccccc1`, inhibition was half-maximal at 1420 nM (IC50).
`C=C(CC[C@]12O[C@H](C(=O)O)[C@@](O)(C(=O)O)[C@](C(=O)O)(O1)[C@H](O)[C@H]2O)[C@@H](OCC1CC1)[C@H](C)Cc1ccccc1` had an IC50 of 33 nM.
`C=C(CC[C@]12O[C@H](C(=O)O)[C@@](O)(C(=O)O)[C@](C(=O)O)(O1)[C@H](O)[C@H]2O)[C@@H](NC(C)=O)[C@H](C)Cc1ccccc1` showed an IC50 of 2220 nM.
Molecule `CC(=O)NC/C(=C\[C@@H](C)Cc1ccccc1)CC[C@]12O[C@H](C(=O)O)[C@@](O)(C(=O)O)[C@](C(=O)O)(O1)[C@H](O)[C@H]2O` registered an IC50 of more than 10000 nM.

The values are drawn from ChEMBL document CHEMBL1150033, “The squalestatins: effects of changes at the allylic centre in the C1 sidechain” (Bioorg Med Chem Lett, 1994).
